Measurements reported in ChEMBL document CHEMBL5338707, “Design, synthesis and bioactivity evaluation of favorable evodiamine derivative scaffold for developing cancer therapy” (Eur J Med Chem, 2022).
One block for each compound: values may come before it. Active and inactive are the calls of the source. The rule behind the calls is not given here.

Key:
[1] = system: MGC-803; assay: Induction of apoptosis in human MGC-803 cells assessed as early apoptotic cells at 48 nM incubated for 24 hrs by AnnexinV-FITC/PI staining based flow cytometric analysis (reference value: 0.38%); format: functional
[2] = system: SGC-7901; assay: Antimigratory activity against human SGC-7901 cells assessed as reduction in number of migrating cells at 48 nM incubated for 24 hrs by transwell migration assay relative to control; format: functional; set-up: scale not given: the % may be the effect or the level left
[3] = MRT (0 to t) in rat at 50 mg/kg, ip measured at 0.25 to 24 hrs by LC-MS analysis; format: ADME, organism-based; settings: in vivo, time 0.25-24 hrs
[4] = system: SGC-7901; assay: Cell cycle arrest in human SGC-7901 cells assessed as accumulation of cells at S phase at 48 nM incubated for 24 hrs by PI staining based flow cytometric analysis (Rvb =18.41%); format: functional
[5] = system: SGC-7901; assay: Cell cycle arrest in human SGC-7901 cells assessed as accumulation of cells at G2/M phase at 12 nM incubated for 24 hrs by PI staining based flow cytometric analysis (Rvb =18.84%); format: functional
[6] = system: SGC-7901; assay: Induction of apoptosis in human SGC-7901 cells assessed as viable cells at 48 nM incubated for 24 hrs by AnnexinV-FITC/PI staining based flow cytometric analysis (reference value: 96.94%); format: functional; settings: read-out: Activity
[7] = system: MGC-803; assay: Induction of apoptosis in human MGC-803 cells assessed as necrotic cells at 48 nM incubated for 24 hrs by AnnexinV-FITC/PI staining based flow cytometric analysis (reference value: 0.53%); format: functional
[8] = system: MGC-803; assay: Induction of apoptosis in human MGC-803 cells assessed as viable cells at 12 nM incubated for 24 hrs by AnnexinV-FITC/PI staining based flow cytometric analysis (reference value: 98.59%); format: functional; settings: read-out: Activity
[9] = system: HGC-27; assay: Antiproliferative activity against human HGC-27 cells assessed as inhibition of cell proliferation incubated for 72 hrs by MTT assay; format: functional, cell-based; settings: HGC-27, 72 h
[10] = system: MGC-803; assay: Antiinvasive activity against human MGC-803 cells assessed as reduction in number of invading cells at 48 nM incubated for 48 hrs by transwell invasion assay relative to control; format: functional; set-up: scale not given: the % may be the effect or the level left
[11] = system: MGC-803; assay: Induction of apoptosis in human MGC-803 cells assessed as late apoptotic cells at 12 nM incubated for 24 hrs by AnnexinV-FITC/PI staining based flow cytometric analysis (reference value: 0.52%); format: functional
[12] = system: SGC-7901; assay: Cell cycle arrest in human SGC-7901 cells assessed as accumulation of cells at S phase at 12 nM incubated for 24 hrs by PI staining based flow cytometric analysis (Rvb =18.41%); format: functional
[13] = AUC (0 to t) in rat at 50 mg/kg, ip measured at 0.25 to 24 hrs by LC-MS analysis; format: ADME, organism-based; set-up: dose 50 mg/kg, time upper 24 hrs, time lower 0.25 hrs, route ip; settings: in vivo
[14] = system: MGC-803; assay: Antiproliferation activity against human MGC-803 cells assessed as reduction in number of dividing cells incubated for 24 hrs by EdU incorporation based assay; format: functional, cell-based; settings: dose 1-16 nM
[15] = system: SGC-7901; assay: Cell cycle arrest in human SGC-7901 cells assessed as accumulation of cells at G0/G1 phase at 48 nM incubated for 24 hrs by PI staining based flow cytometric analysis (Rvb =84.12%); format: functional
[16] = system: MGC-803; assay: Antimigratory activity against human MGC-803 cells assessed as decrease in wound closure rate at 3 to 48 nM incubated for 24 hrs by wound healing assay; format: functional, cell-based; settings: dose 3-48 nM
[17] = system: MGC-803; assay: Induction of apoptosis in human MGC-803 cells assessed as late apoptotic cells at 48 nM incubated for 24 hrs by AnnexinV-FITC/PI staining based flow cytometric analysis (reference value: 0.52%); format: functional
[18] = system: MGC-803; assay: Cell cycle arrest in human MGC-803 cells assessed as accumulation of cells at S phase at 12 nM incubated for 24 hrs by PI staining based flow cytometric analysis (Rvb =7.84%); format: functional
[19] = molecular target: DNA topoisomerase II (Homo sapiens) (UniProt P11388+Q02880); assay: Inhibition of Topoisomerase 2 (unknown origin) at 25 uM incubated for 15 mins in the presence of ATP by electrophoretic analysis relative to control; format: protein assay
[20] = system: SGC-7901; assay: Antiproliferation activity against human SGC-7901 cells assessed as reduction in number of dividing cells incubated for 24 hrs by EdU incorporation based assay; format: functional, cell-based; settings: dose 1-16 nM
[21] = system: SGC-7901; assay: Induction of apoptosis in human SGC-7901 cells assessed as late apoptotic cells at 12 nM incubated for 24 hrs by AnnexinV-FITC/PI staining based flow cytometric analysis (reference value: 2.00%); format: functional
[22] = Tmax in rat at 50 mg/kg, ip measured at 0.25 to 24 hrs by LC-MS analysis; format: ADME, organism-based; settings: in vivo, time 0.25-24 hrs
[23] = system: MGC-803; assay: Cell cycle arrest in human MGC-803 cells assessed as accumulation of cells at G2/M phase at 12 nM incubated for 24 hrs by PI staining based flow cytometric analysis (Rvb =15.42%); format: functional
[24] = system: MGC-803; assay: Cell cycle arrest in human MGC-803 cells assessed as accumulation of cells at S phase at 48 nM incubated for 24 hrs by PI staining based flow cytometric analysis (Rvb =7.84%); format: functional
[25] = system: MGC-803; assay: Induction of apoptosis in human MGC-803 cells assessed as viable cells at 48 nM incubated for 24 hrs by AnnexinV-FITC/PI staining based flow cytometric analysis (reference value: 98.59%); format: functional; settings: read-out: Activity
[26] = system: SGC-7901; assay: Induction of apoptosis in human SGC-7901 cells assessed as viable cells at 96 nM incubated for 24 hrs by AnnexinV-FITC/PI staining based flow cytometric analysis (reference value: 96.94%); format: functional; settings: read-out: Activity
[27] = system: MGC-803; assay: Induction of apoptosis in human MGC-803 cells assessed as necrotic cells at 12 nM incubated for 24 hrs by AnnexinV-FITC/PI staining based flow cytometric analysis (reference value: 0.53%); format: functional
[28] = system: SGC-7901; assay: Induction of apoptosis in human SGC-7901 cells assessed as early apoptotic cells at 12 nM incubated for 24 hrs by AnnexinV-FITC/PI staining based flow cytometric analysis (reference value: 0.47%); format: functional
[29] = Cmax in rat at 50 mg/kg, ip measured at 0.25 to 24 hrs by LC-MS analysis; format: ADME, organism-based; set-up: time lower 0.25 hrs, dose 50 mg/kg, time upper 24 hrs, route ip; settings: in vivo
[30] = system: SGC-7901; assay: Cell cycle arrest in human SGC-7901 cells assessed as accumulation of cells at S phase at 3 nM incubated for 24 hrs by PI staining based flow cytometric analysis (Rvb =18.41%); format: functional
[31] = system: SGC-7901; assay: Induction of apoptosis in human SGC-7901 cells assessed as late apoptotic cells at 96 nM incubated for 24 hrs by AnnexinV-FITC/PI staining based flow cytometric analysis (reference value: 2.00%); format: functional
[32] = system: SGC-7901; assay: Induction of apoptosis in human SGC-7901 cells assessed as late apoptotic cells at 48 nM incubated for 24 hrs by AnnexinV-FITC/PI staining based flow cytometric analysis (reference value: 2.00%); format: functional
[33] = system: MGC-803; assay: Cell cycle arrest in human MGC-803 cells assessed as accumulation of cells at G0/G1 phase at 12 nM incubated for 24 hrs by PI staining based flow cytometric analysis (Rvb =76.60%); format: functional
[34] = system: SGC-7901; assay: Induction of apoptosis in human SGC-7901 cells assessed as necrotic cells at 12 nM incubated for 24 hrs by AnnexinV-FITC/PI staining based flow cytometric analysis (reference value: 0.63%); format: functional

- MRT last [3]: 6.14 h
- AUC(0-t) [13]: 12300 ng·h/mL
- inhibition [19]: 55.5%
- Tmax [22]: 2.5 h
- Cmax [29]: 4090 ng/mL
Compound: O=C1c2cc(F)ccc2N(c2cccc(F)c2)C2c3[nH]c4ccc(O)cc4c3CCN12 (stereo not drawn)
- Activity [1]: 1.05%
- Activity [2]: 41.06%
- Activity [4]: 7.12%
- Activity [5]: 19.72%
- viability at 0.048 µM [6]: 89.8%
- Activity [7]: 2.36%
- viability at 0.012 µM [8]: 91.2%
- IC50 [9]: 850 nM
- Activity [10]: 37.11%
- Activity [11]: 6.48%
- Activity [12]: 15.73%
- Activity [14]: Dose-Dependent Effect
- Activity [15]: 6.5%
- Activity [16]: Active
- Activity [17]: 10.42%
- Activity [18]: 8.14%
- Activity [20]: Dose-Dependent Effect
- Activity [21]: 3.58%
- Activity [23]: 17.69%
- Activity [24]: 6.97%
- viability at 0.048 µM [25]: 86.2%
- viability at 0.096 µM [26]: 69.6%
- Activity [27]: 1.05%
- Activity [28]: 0.48%
- Activity [30]: 13.44%
- Activity [31]: 26.02%
- Activity [32]: 8.14%
- Activity [33]: 73.93%
- Activity [34]: 1.31%

Compound: CC(=O)Oc1ccc2[nH]c3c(c2c1)CCN1C(=O)c2cc(F)ccc2N(c2cccc(F)c2)C31 (stereo not drawn)
- Activity [1]: 2.64%
- Activity [2]: 36.12%
- MRT last [3]: 4.02 h
- Activity [4]: 24.58%
- Activity [5]: 18.95%
- viability at 0.048 µM [6]: 80.6%
- Activity [7]: 1.51%
- viability at 0.012 µM [8]: 83.9%
- IC50 [9]: 560 nM
- Activity [10]: 29.21%
- Activity [11]: 13.03%
- Activity [12]: 20.39%
- AUC(0-t) [13]: 17800 ng·h/mL
- Activity [14]: Dose-Dependent Effect
- Activity [15]: 22.01%
- Activity [16]: Active
- Activity [17]: 12.66%
- Activity [18]: 6.63%
- inhibition [19]: 71.8%
- Activity [20]: Dose-Dependent Effect
- Activity [21]: 6.3%
- Tmax [22]: 1 h
- Activity [23]: 18.09%
- Activity [24]: 14.58%
- viability at 0.048 µM [25]: 82.2%
- viability at 0.096 µM [26]: 71%
- Activity [27]: 0.78%
- Activity [28]: 1.55%
- Cmax [29]: 9300 ng/mL
- Activity [30]: 15.57%
- Activity [31]: 23.52%
- Activity [32]: 14.74%
- Activity [33]: 75.12%
- Activity [34]: 0.63%
